Data taken from ChEMBL document CHEMBL1145147, “Cytotoxic neolignans: an SAR study” (Bioorg Med Chem Lett, 2005).

Test system: HepG2
Assay: Cytotoxicity of compound against human liver tumor cell line (Hep-G2) was determined
Assay type: functional, cell-based

**Q.** For C/C=C/c1ccc(O)c(-c2cc(/C=C/C)ccc2O)c1, which IC50 is on record?
**A.** 38 µM

**Q.** With C=CCc1cc(O)c(O)c(-c2cc(CC=C)cc(O)c2O)c1 as the compound, how does the IC50 read?
**A.** 104 µM

**Q.** With C=CCc1cccc(-c2cccc(CC=C)c2O)c1O as the compound, how does the IC50 read?
**A.** 42.1 µM

**Q.** How did the IC50 turn out when C=CCc1cc(OC)c(O)c(-c2cc(CC=C)cc(OC)c2O)c1 was run?
**A.** 117 µM

**Q.** With C=CCc1ccc(OC)c(-c2cc(CC=C)ccc2OC)c1 as the compound, how does the IC50 read?
**A.** > 200 µM

**Q.** For Oc1ccccc1-c1ccccc1O, which IC50 is on record?
**A.** > 200 µM

**Q.** Which IC50 does the source give for CCCc1ccc(O)c(-c2cc(CCC)ccc2O)c1 here?
**A.** 23.4 µM

**Q.** Which IC50 does the source give for CCCc1ccc(O)c(-c2ccc(O)c(CCC)c2)c1 here?
**A.** 13.1 µM

**Q.** For C=CCc1ccc(O)cc1 [CHAVICOL], which IC50 is on record?
**A.** > 200 µM

**Q.** C=CCc1ccc(O)c(-c2ccc(O)c(CC=C)c2)c1 [HONOKIOL] was tested. Which IC50 did it give?
**A.** 16.5 µM

**Q.** For C=CCc1ccc(Oc2cc(CC=C)ccc2O)cc1 [ISOMAGNOLOL], which IC50 is on record?
**A.** 51.8 µM

**Q.** For C=CCc1ccc(O)c(-c2cc(CC=C)ccc2O)c1 [MAGNOLOL], which IC50 is on record?
**A.** 32 µM
